Assay results published in patent US8329739B2, “Phenylimidazole compounds” (Otsuka Pharmaceutical Factory, Inc., priority 2009, dated 2012).

Tests used:
LPL (lipoprotein lipase) = molecular target: T1, LPL (lipoprotein lipase) (Mus musculus, UniProt P11152); experiment: Confirmation test of LPL activation effect in mouse skeletal muscle cells (C2C12 cells); format: cell-based; conditions: 8 hours exposure, vs control group
T1 construct: endogenous in cells; host or cells: C2C12 cells, differentiated
T1 sequence (P11152 28-474): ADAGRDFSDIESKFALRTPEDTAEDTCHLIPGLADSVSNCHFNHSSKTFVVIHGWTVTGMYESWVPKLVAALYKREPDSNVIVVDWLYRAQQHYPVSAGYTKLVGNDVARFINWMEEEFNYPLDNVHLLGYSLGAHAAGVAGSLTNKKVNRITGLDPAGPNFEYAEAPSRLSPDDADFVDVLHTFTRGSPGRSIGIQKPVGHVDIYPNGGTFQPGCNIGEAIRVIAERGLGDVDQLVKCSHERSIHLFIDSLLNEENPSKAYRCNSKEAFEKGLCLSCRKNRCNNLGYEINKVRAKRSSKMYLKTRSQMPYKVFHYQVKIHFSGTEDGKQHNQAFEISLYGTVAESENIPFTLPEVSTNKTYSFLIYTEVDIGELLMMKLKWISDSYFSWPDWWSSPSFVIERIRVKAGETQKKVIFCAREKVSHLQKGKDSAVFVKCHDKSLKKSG
Protocol: Human skeletal muscle cells (human skeletal muscle myoblasts) or mouse skeletal muscle cells (C2C12 cells) that were seeded onto plates, cultured, and differentiated were exposed to a 0.3% dimethyl sulfoxide-containing culture medium in which the compound of the present invention was dissolved (concentration: 10 μM or 30 μM). The medium was removed 8 hours after exposure, 10 mM of Tris-HCl buffer (150 mM NaCl, 10 μ/mL; containing heparin sodium) was added to the cells, and the cells were incubated at 37° C. in the presence of 5% CO2 for 10 minutes. LPL activity in the supernatant was measured using an LPL activity assay kit (made by Roar Biomedical Inc.). LPL activity was evaluated based on the increase in fluorescence intensity 10 to 70 minutes after mixing the supernatant with the LPL substrate. The mean value of the increase in fluorescence intensity of the cells exposed to a 0.3% dimethyl sulfoxide-containing culture medium […] was used as mean value of the control group. Note that the compounds of Examples 18, 19, 32, 45 and 57 were tested using human skeletal muscle cells, and other compounds were tested using mouse skeletal muscle cells. The rate of increase (%) was calculated from the measured values of LPL activity in the control group and the experimental group, according to the following formula. Rate of increase in LPL activity (%)=[(mean value of the experimental group)−(mean value of the control group)]/(mean value of the control group)×100

Row | Structure (SMILES) | Rate of increase in LPL activity (LPL (lipoprotein lipase); amount of addition 10 μM) [%] | Rate of increase in LPL activity (LPL (lipoprotein lipase); amount of addition 30 μM) [%] | melting point [°C]
1 | COc1cc(OCc2ccc(Cl)cc2)ccc1-c1c[nH]c(-c2cccc(C(F)(F)F)c2)n1.Cl [Example 119] | 67 | 174 | 231 to 236
2 | COc1ccc(-c2nc(-c3ccc(OCc4ccc(C#N)cc4)cc3OC)c[nH]2)cc1.Cl [Example 87] | 23 | 144 | 183 to 186
3 | COc1cc(-c2c[nH]c(-c3ccsc3)n2)ccc1OCc1ccc(Br)cc1F.Cl [Example 69] | 52 | 142 | 251 to 252
4 | COc1cc(OCc2ccc(C#N)cc2)ccc1-c1c[nH]c(-c2ccsc2)n1 [Example 65] | 24 | 46 | 183 to 186
5 | COc1cc(-c2c[nH]c(-c3ccoc3)n2)ccc1OCc1ccccc1 [Example 26] | 31 | 51 | 177 to 179
6 | COc1cc(OCc2ccccc2)ccc1-c1c[nH]c(-c2cccc(C(F)(F)F)c2)n1 [Example 126] | 99 | 297 | 159 to 162
7 | COc1cc(-c2c[nH]c(-c3ccc(F)cc3)n2)ccc1OCc1ccccc1C#N [Example 50] | 20 | 70 | 204 to 206
8 | COc1cccc(-c2nc(-c3ccc(OCc4ccc(Br)cc4F)cc3OC)c[nH]2)c1.Cl [Example 99] | 14 | 90 | 255 to 258
9 | COc1cc(OCc2ccc(Cl)cc2)ccc1-c1c[nH]c(-c2cccc(F)c2)n1.Cl [Example 78] | 14 | 60 | 231 to 232
10 | COc1cc(OCc2ccc(Cl)cc2)ccc1-c1c[nH]c(-c2ccc(C(C)(C)C)cc2)n1 [Example 115] | 62 | 88 | 154 to 157
11 | COc1cc(OCc2ccccc2)ccc1-c1c[nH]c(-c2ccc(F)cc2)n1.Cl [Example 42] | 47 | 131 | 217 to 220
12 | COc1ccc(-c2nc(-c3ccc(OCc4ccccc4)cc3OC)c[nH]2)cc1.Cl [Example 128] | 49 | 208 | 154 to 165
13 | COc1cc(OCc2ccc(Br)cc2F)ccc1-c1c[nH]c(-c2cccc(C(F)(F)F)c2)n1.Cl [Example 58] | 45 | 150 | > 250
14 | COc1cc(OCc2ccc(Br)cc2F)ccc1-c1c[nH]c(-c2ccccc2)n1.Cl [Example 11] | 96 | 231 | 239 to 240
15 | COc1cc(-c2c[nH]c(-c3ccc(F)cc3)n2)ccc1OCc1cccc(C#N)c1.Cl [Example 61] | 53 | 92 | 242 to 244
16 | COc1cc(-c2c[nH]c(-c3cccc(C(F)(F)F)c3)n2)ccc1OCc1ccc(Br)cc1F [Example 51] | 16 | 115 | 173 to 174
17 | COc1cc(OCc2ccccc2)ccc1-c1c[nH]c(-c2ccc(Cl)cc2)n1 [Example 123] | 11 | 42 | 160 to 163
18 | COc1cc(OCc2ccccc2)ccc1-c1c[nH]c(C(C)C)n1 [Example 30] | 11 | 47 | 154 to 156
19 | COc1cc(OCc2ccc(Cl)cc2)ccc1-c1c[nH]c(-c2ccccc2C(F)(F)F)n1 [Example 83] | 29 | 100 | 158 to 161
